Measurements reported in US20090311237A1, “Combination therapy using a soluble hyaluronidase and a bisphosphonate” (priority 2008, published 2009).
Where two headings read alike, the source gives them in different places.

Assay: Phase 1 Stage 1 clinical pharmacokinetics of SC ZA co-administered with rHuPH20
Type: in vivo, human
Conditions: human, serum, sc; for AUC(0-t): AUC (0-48 h); for AUC(0-t) / Cmax / AUC(0-inf) / Tmax: ZA […] SC; for AUC(0-inf): read-out: AUC (0-inf); for Tmax: read-out: Tmax; for concentration at 0 h: 0 h post infusion; for concentration at 10 min: 10 min post infusion; for concentration at 0.5 h: 0.5 h post infusion; for concentration at 1 h: 1 h post infusion; for concentration at 2 h: 2 h post infusion; for concentration at 4 h: 4 h post infusion; for concentration at 6 h: 6 h post infusion; for concentration at 8 h: 8 h post infusion
Protocol: A pharmacokinetic study of zoledronic acid (ZA) co-administered with rHuPH20 in human subjects was conducted. The primary objective of the study was to determine the bioavailability of zoledronic acid dosed via subcutaneous (SC) co-administration with human recombinant hyaluronidase PH20 (rHuPH20). […] The patients were administered the prescribed dosage formulations as follows: Cohorts 1-5 were administered a single subcutaneous infusion in a dosage volume of 100 ml at a rate of 3 mL/min. […] The dosing solution is administered via needle or catheter into the SC space of the left anterior thigh (midway between the anterior iliac crest and the cephalad border of the patella). For cohorts 1-5, the dosing solutions were administered by a controlled rate infusion pump at approximately 3 mL/minute. […] The dosing solutions were administered by syringe push bolus injection. […] Serum concentration of ZA was determined using a qualified LC-MS-MS assay after derivatization with diazomethane (Zhu, L S et al. (2006) Rapid Commun. […] The assay range was from 2.0 to 400 ng/mL with a lower limit of quantitation (LLOQ) at 2.0 ng/mL. […] Non-compartmental analysis was used for derivation of primary and secondary pharmacokinetic (PK) parameters. […] Summary statistics (mean, standard deviation, and median) were calculated using JMP or Microsoft Excel.

[1] = Subj 21, inf 0.556 hr, PH20 24000 U
[2] = Subj 25, inf 0.549 hr, PH20 23736 U
[3] = Subj 31, inf 0.554 hr, PH20 23952 U
[4] = Subj 32, inf 0.556 hr, PH20 24000 U
[5] = Subj 51, inf 0.251 hr, PH20 6024 U
[6] = Subj 1, inf 0.554 hr, PH20 23928 U
[7] = Subj 8, inf 0.531 hr, PH20 22944 U
[8] = Subj 11, inf 0.554 hr, PH20 23928 U
[9] = Subj 16, inf 0.553 hr, PH20 23904 U
[10] = ZA 0.25 mg SC infusion + 24000 Units rHuPH20, individual subjects, read-out: Zoledronic Acid Concentration
[11] = ZA 0.25 mg SC infusion + 24000 Units rHuPH20, n=3, read-out: Mean Conc.
[12] = ZA 0.25 mg SC infusion + 24000 Units rHuPH20, n=3, read-out: Median Conc.
[13] = ZA 0.5 mg SC infusion + 24000 Units rHuPH20, individual subjects, read-out: Zoledronic Acid Concentration
[14] = ZA 0.5 mg SC infusion + 24000 Units rHuPH20, n=3, read-out: Mean Conc.
[15] = ZA 0.5 mg SC infusion + 24000 Units rHuPH20, n=3, read-out: Median Conc.

O=P(O)(O)C(O)(Cn1ccnc1)P(=O)(O)O [ZA, 1-hydroxy-2-(1H-imidazol-1-yl)ethylidene-1,1-bisphosphonic acid]
AUC(0-t) (Subj 18, inf […], PH20 23304 U): 69.8 ng·h/mL | AUC(0-t) [1]: 66.1 ng·h/mL | AUC(0-t) [2]: 115 ng·h/mL | AUC(0-t) (Subj 26, inf […], PH20 23088 U): 150 ng·h/mL | AUC(0-t) [3]: 234 ng·h/mL | AUC(0-t) [4]: 277 ng·h/mL | AUC(0-t) [5]: 471 ng·h/mL | AUC(0-t) (Subj 77, inf […], PH20 6000 U): 618 ng·h/mL | Cmax [6]: 7.75 ng/mL | AUC(0-inf) [6]: 29.9 ng·h/mL | Tmax [6]: 1.02 h | Cmax [7]: 5.67 ng/mL | AUC(0-inf) [7]: 32.6 ng·h/mL | Tmax [7]: 1.41 h | Cmax [8]: 6.84 ng/mL | AUC(0-inf) [8]: 30.8 ng·h/mL | Tmax [8]: 1.25 h | Cmax [9]: 15.3 ng/mL | AUC(0-inf) [9]: 62.5 ng·h/mL | Tmax [9]: 0.8 h | Cmax (Subj 18, inf […], PH20 23304 U): 17.1 ng/mL | AUC(0-inf) (Subj 18, inf […], PH20 23304 U): 68.1 ng·h/mL | Tmax (Subj 18, inf […], PH20 23304 U): 1.29 h | Cmax [1]: 14.2 ng/mL | AUC(0-inf) [1]: 64.3 ng·h/mL | Tmax [1]: 1.31 h | Cmax [2]: 30.1 ng/mL | AUC(0-inf) [2]: 117 ng·h/mL | Tmax [2]: 1.3 h | Cmax (Subj 26, inf […], PH20 23088 U): 33.4 ng/mL | AUC(0-inf) (Subj 26, inf […], PH20 23088 U): 153 ng·h/mL | Tmax (Subj 26, inf […], PH20 23088 U): 1.03 h | Cmax [3]: 53 ng/mL | AUC(0-inf) [3]: 239 ng·h/mL | Tmax [3]: 1.54 h | Cmax [4]: 58.7 ng/mL | AUC(0-inf) [4]: 295 ng·h/mL | Tmax [4]: 1.56 h | Cmax [5]: 95.4 ng/mL | AUC(0-inf) [5]: 508 ng·h/mL | Tmax [5]: 0.52 h | Cmax (Subj 77, inf […], PH20 6000 U): 147 ng/mL | AUC(0-inf) (Subj 77, inf […], PH20 6000 U): 678 ng·h/mL | Tmax (Subj 77, inf […], PH20 6000 U): 0.75 h | concentration at 0 h [10]: 4.5 ng/mL | concentration at 0 h [11]: 4.74 ng/mL | concentration at 0 h [12]: 4.69 ng/mL | concentration at 10 min [10]: 7.43 ng/mL | concentration at 10 min [11]: 5.76 ng/mL | concentration at 10 min [12]: 4.97 ng/mL | concentration at 0.5 h [10]: 7.75 ng/mL | concentration at 0.5 h [11]: 6.39 ng/mL | concentration at 0.5 h [12]: 6.25 ng/mL | concentration at 1 h [10]: 7.25 ng/mL | concentration at 1 h [11]: 6.51 ng/mL | concentration at 1 h [12]: 6.6 ng/mL | concentration at 2 h [10]: 5.42 ng/mL | concentration at 2 h [11]: 5.06 ng/mL | concentration at 2 h [12]: 5.42 ng/mL | concentration at 4 h [10]: 2.56 ng/mL | concentration at 4 h [11]: 3.02 ng/mL | concentration at 4 h [12]: 3.06 ng/mL | concentration at 6 h [10]: 1.2 ng/mL | concentration at 6 h [11]: 1.52 ng/mL | concentration at 6 h [12]: 1.35 ng/mL | concentration at 8 h [10]: 0.56 ng/mL | concentration at 8 h [11]: 0.82 ng/mL | concentration at 8 h [12]: 0.79 ng/mL | concentration at 0 h [13]: 10.8 ng/mL | concentration at 0 h [14]: 11.8 ng/mL | concentration at 0 h [15]: 11.1 ng/mL | concentration at 10 min [13]: 15 ng/mL | concentration at 10 min [14]: 15 ng/mL | concentration at 10 min [15]: 15 ng/mL | concentration at 0.5 h [13]: 13.8 ng/mL | concentration at 0.5 h [14]: 14.4 ng/mL | concentration at 0.5 h [15]: 13.8 ng/mL | concentration at 1 h [13]: 14.1 ng/mL | concentration at 1 h [14]: 14.3 ng/mL | concentration at 1 h [15]: 14.1 ng/mL | concentration at 2 h [13]: 11.1 ng/mL | concentration at 2 h [14]: 11.1 ng/mL | concentration at 2 h [15]: 11.1 ng/mL | concentration at 4 h [13]: 5.27 ng/mL | concentration at 4 h [14]: 5.72 ng/mL | concentration at 4 h [15]: 5.87 ng/mL | concentration at 6 h [13]: 2.5 ng/mL | concentration at 6 h [14]: 2.69 ng/mL
